Experimental data as given in patent US4954516A, “Use of 1-benzyl-aminoalkyl-pyrrolidinones as antidepressants” (Boehringer Ingelheim KG, priority 1986, dated 1990).

Tests used:
[1] = test system: isolated one-day-old chicks; assay: chick call test (distress call activation in isolated chicks); format: in vivo; conditions: for ED150: Gallus gallus, ip
Source text: The call frequency of isolated one-day-old chicks which decreases during the course of the test is taken as an experimental behavioural model for manifestations of resignation in depression. […] Neurol. Psychiat.

LD50, mouse, oral route = conditions: in vivo, by oral route
cholinergic function = assay: Effect on cholinergic function; conditions: result in words
Tetrabenazine = Tetrabenazine antagonism (ptosis alleviation, mouse); format: in vivo; conditions: Table 1
[2] = target: adrenergic, serotonergic receptors; assay: Receptor bonding (adrenergic, serotonergic); format: binding; conditions: for Receptor bonding: result in words

## NCC1CC(=O)N(Cc2ccc(F)cc2)C1 (centres unmarked) [D, 1-(4-Fluorobenzyl)-4-aminomethyl-pyrrolidin-2-one]
[1]; Table II
  ED150: 20 mg/kg

## COc1ccc(CN2CC(CN)CC2=O)cc1 (centres unmarked) [C, 1-(4-Methoxybenzyl)-4-aminomethyl-pyrrolidin-2-one]
[1]; Table II
  ED150: 25 mg/kg

## CN1CCN(CC2CC(=O)N(Cc3ccccc3)C2)CC1 (centres unmarked) [H, 1-Benzyl-4-(N-methylpiperazinylmethyl)-pyrrolidin-2-one]
[1]; Table II
  ED150: 18 mg/kg

## O=C1CCC(CN2CCCC2)N1Cc1ccccc1 (centres unmarked) [K, 1-Benzyl-5-pyrrolidinomethyl-pyrrolidin-2-one]
[1]; Table II
  ED150: 0.1 mg/kg

## CCN(CC)CC1CCC(=O)N1Cc1ccccc1 (centres unmarked) [J, 1-Benzyl-5-diethylaminomethyl-pyrrolidin-2-one]
[1]; Table II
  ED150: 0.01 mg/kg

## NCC1CC(=O)N(Cc2ccccc2)C1 (centres unmarked) [Compound A, 1-benzyl-4-aminomethyl-pyrrolidin-2-one]
LD50, mouse, oral route
  LD50: > 2000 mg/kg
[1]; Table 1
  ED150: 40 mg/kg
Cholinergic function
  Effect on cholinergic function: Demand
Tetrabenazine
  Tetrabenazine antagonism (ptosis alleviation, mouse): 100 mg/kg
[2]
  IC50: > 10 µM
  Receptor bonding: none

## O=C1CC(CN2CCOCC2)CN1Cc1ccc(F)cc1 (centres unmarked) [1-(4-Fluorobenzyl)-4-(morpholinomethyl)-pyrrolidin-2-one]
[1]; Table II
  ED150: 80 mg/kg

## CN(C)CC1CCC(=O)N1Cc1ccc(Cl)cc1 (centres unmarked) [L, 1-(p-chlorobenzyl)-5-dimethylaminomethyl-pyrrolidin-2-one]
[1]; Table II
  ED150: 0.1 mg/kg

## 1-acetamido-2-pyrrolidinone [Compound B, reference compound]
[1]; i.p., Table 1
  Chick call test ED150: > 160 mg/kg
Cholinergic function
  Effect on cholinergic function: none
Tetrabenazine
  Tetrabenazine antagonism (ptosis alleviation, mouse): > 640 mg/kg
[2]
  Receptor bonding: none
